Assay results taken from ChEMBL document CHEMBL5154876, “Design, synthesis and promising anti-tumor efficacy of novel imidazo[1,2-a]pyridine derivatives as potent autotaxin allosteric inhibitors” (Eur J Med Chem, 2022).
pIC50: −log10 of the molar value.

Legend:
RAW264.7 = experiment: Cytotoxicity against mouse RAW264.7 cells assessed as inhibition of cell growth incubated for 72 hrs by MTT assay; type: functional, cell-based; settings: RAW264.7, 72 h
Hep 3B2 = experiment: Cytotoxicity against human Hep3B cells assessed as inhibition of cell growth incubated for 72 hrs by MTT assay; type: functional, cell-based
Autotaxin = Autotaxin (Homo sapiens, UniProt Q13822); experiment: Negative allosteric modulation activity against human ATX using FS-3 as substrate preincubated for 45 mins followed by substrate addition and measured every 30 mins by multi-mode microplate reader
NCI-H1581 = experiment: Cytotoxicity against human NCI-H1581 cells assessed as inhibition of cell growth incubated for 72 hrs by MTT assay; type: functional, cell-based; settings: NCI-H1581, 72 h
MCF7 = experiment: Cytotoxicity against human MCF-7 cells assessed as inhibition of cell growth incubated for 72 hrs by MTT assay; type: functional, cell-based; settings: MCF7, 72 h
A549 = experiment: Cytotoxicity against human A549 cells assessed as inhibition of cell growth incubated for 72 hrs by MTT assay; type: functional, cell-based; settings: A549, 72 h
NCI-H2228 = experiment: Cytotoxicity against human H2228 cells assessed as inhibition of cell growth incubated for 72 hrs by MTT assay; type: functional, cell-based; settings: NCI-H2228, 72 h
MDA-MB-231 = experiment: Cytotoxicity against human MDA-MB-231 cells assessed as inhibition of cell growth incubated for 72 hrs by MTT assay; type: functional, cell-based; settings: MDA-MB-231, 72 h

SMILES | pIC50 (Autotaxin) | pIC50 (RAW264.7) | pIC50 (Hep 3B2) | pIC50 (NCI-H1581) | pIC50 (MCF7) | pIC50 (A549) | pIC50 (NCI-H2228) | pIC50 (MDA-MB-231)
CCc1nc2c(C)cc(-c3ccc(CN4CCOCC4)cc3)cn2c1NC(=O)OCc1ccc(F)cc1 | 7.29 | < 4.70 | < 4.70 | < 4.70 | < 4.70 | < 4.70 | < 4.70 | < 4.70
CCc1nc2c(C)cc(-c3ccc(CN4CCN(CCO)CC4)cc3)cn2c1NC(=O)OCc1ccc(F)c(F)c1 | 7.39 | 5.30 | 4.98 |  | 5.02 | 5.25 | 5.02 | 5.32
CCc1nc2c(C)cc(-c3ccc(CN4CCCC4)cc3)cn2c1NC(=O)OCc1cc(Cl)cc(Cl)c1 | 6.85 |  |  |  |  |  |  | 
CCc1nc2c(C)cc(-c3ccc(CO)cc3)cn2c1NC(=O)OCc1ccc(F)c(F)c1 | < 6.00 |  |  |  |  |  |  | 
CCc1nc2c(C)cc(N3CCN(CC(=O)N4CC(O)C4)CC3)cn2c1N(C)c1nc(-c2ccc(F)cc2)c(C#N)s1 [ZIRITAXESTAT] |  | < 4.70 | < 4.70 | < 4.70 | < 4.70 | < 4.70 | < 4.70 | < 4.70
CCc1nc2c(C)cc(-c3ccc(CN4CCSCC4)cc3)cn2c1NC(=O)OCc1ccc(F)c(F)c1 | 6.54 |  | < 4.70 |  |  | < 4.70 |  | < 4.70
CCc1nc2c(C)cc(-c3ccc(CN4CCN(C)CC4)cc3)cn2c1NC(=O)OCc1ccc(C(F)(F)F)cc1 | 6.50 | < 4.70 | < 4.70 |  | < 4.70 | < 4.70 |  | 5.37
CCc1nc2c(C)cc(-c3ccc(CN4CCN(C)CC4)cc3)cn2c1NC(=O)OCc1ccc(F)c(F)c1 | 6.81 | 5.44 | 5.31 |  | 5.19 | < 4.70 |  | 5.21
CCc1nc2c(C)cc(-c3ccc(CN4CCCCC4)cc3)cn2c1NC(=O)OCc1cc(Cl)cc(Cl)c1 | 6.79 |  |  |  |  |  |  | 
CCc1nc2c(C)cc(-c3ccc(CN4CCSCC4)cc3)cn2c1NC(=O)OCc1cc(Cl)cc(Cl)c1 | 7.04 |  | < 4.70 |  | < 4.70 | < 4.70 |  | 
CCc1nc2c(C)cc(-c3ccc(CN4CCN(CC)CC4)cc3)cn2c1NC(=O)OCc1ccc(F)c(F)c1 | 6.77 |  |  |  |  |  |  | 
CCc1nc2c(C)cc(-c3ccc(CN4CCOCC4)cc3)cn2c1NC(=O)OCc1cc(Cl)cc(Cl)c1 | 6.89 |  |  |  |  |  |  | 
CCc1nc2c(C)cc(-c3ccc(CN4CCC[C@H]4CO)cc3)cn2c1NC(=O)OCc1ccc(F)cc1 | 7.58 | < 4.70 | < 4.70 | < 4.70 | < 4.70 | < 4.70 | < 4.70 | < 4.70
CCc1nc2c(C)cc(-c3ccc(CN4CCOCC4)cc3)cn2c1NC(=O)OCc1ccc(OC)c(Cl)c1 | 7.47 | < 4.70 | < 4.70 | < 4.70 | < 4.70 | < 4.70 | < 4.70 | < 4.70
CCc1nc2c(C)cc(-c3ccc(CNCCO)cc3)cn2c1NC(=O)OCc1cc(Cl)cc(Cl)c1 | 7.47 |  | < 4.70 |  | < 4.70 | < 4.70 |  | < 4.70
O=C(CCN1CCN(C(=O)OCc2cc(Cl)cc(Cl)c2)CC1)c1ccc2[nH]c(=O)oc2c1 |  | 5.02 | < 4.70 | < 4.70 | < 4.70 | < 4.70 | < 4.70 | < 4.70

The remaining compounds from weak to strong by pIC50 (Autotaxin), led by results:

pIC50 (Autotaxin) | SMILES | pIC50 (RAW264.7) | pIC50 (Hep 3B2) | pIC50 (NCI-H1581) | pIC50 (MCF7) | pIC50 (A549) | pIC50 (NCI-H2228) | pIC50 (MDA-MB-231)
6.63 | CCc1nc2c(C)cc(-c3ccc(CN4CCN(CC)CC4)cc3)cn2c1NC(=O)OCc1ccc(C(F)(F)F)cc1 |  |  |  |  |  |  | 
6.66 | CCc1nc2c(C)cc(-c3ccc(CN4CCN(C)CC4)cc3)cn2c1NC(=O)OCc1cc(Cl)cc(Cl)c1 | 5.85 | 5.31 |  | 5.24 | 5.40 |  | 
7.09 | CCc1nc2c(C)cc(-c3ccc(CN4CCN(CCO)CC4)cc3)cn2c1NC(=O)OCc1ccc(C(F)(F)F)cc1 | 5.70 | 5.22 | 5.25 | 5.15 | 5.30 |  | 
7.15 | CCc1nc2c(C)cc(-c3ccc(CN(CCO)CCO)cc3)cn2c1NC(=O)OCc1cc(Cl)cc(Cl)c1 |  |  |  |  |  |  | 
7.39 | CCc1nc2c(C)cc(-c3ccc(CN4CCC[C@H]4CO)cc3)cn2c1NC(=O)OCc1cc(Cl)cc(Cl)c1 | 5.60 |  |  |  | 5.24 |  | 
7.62 | CCc1nc2c(C)cc(-c3ccc(CN4CCC(C)CC4)cc3)cn2c1NC(=O)OCc1cc(Cl)cc(Cl)c1 | 5.67 | 5.31 | 5.39 | 5.40 | 5.09 | 5.29 | 5.23
7.77 | CCc1nc2c(C)cc(-c3ccc(CN4CCC(O)CC4)cc3)cn2c1NC(=O)OCc1cc(Cl)cc(Cl)c1 | 5.34 |  | 5.32 | 5.27 |  | 5.13 | 5.80
8.15 | CCc1nc2c(C)cc(-c3ccc(CN4CCN(CCO)CC4)cc3)cn2c1NC(=O)OCc1ccc(F)cc1 | < 4.70 | < 4.70 | < 4.70 | < 4.70 | < 4.70 | < 4.70 | < 4.70
